Series [1] is described as follows: Antioxidant activity assessed as reduction of Fe(3)-TPTZ to Fe(2)-TPTZ complex after 5 mins by FRAP assay. The series is classed as functional.
Series [2] is described as follows: Antioxidant activity assessed as reduction of hydroxyl radical-mediated BSA damage at 50 uM after 30 mins by SDS-PAGE. The series is classed as functional.
Series [3] can be described thus: Antioxidant activity assessed as reduction of heme/H2O2-mediated BSA degradation at 50 uM after 1 hr by SDS-PAGE. The series is classed as functional.
Series [4] can be described thus: Iron chelating activity of the compound assessed as reduction of Fe(2)-TPTZ complex formation by UV-visible spectrophotometry. In kind it is physicochemical.
Series [5] deals with Heme. Description: Binding affinity to heme (unknown origin) at 2 to 20 uM by optical spectroscopy.
Series [6] relates to Radical scavenging activity. Description: Antioxidant activity assessed as DPPH free radical scavenging activity after 30 mins by spectrophotometry. In kind it is functional.
Series [7] concerns Heme. Description: Binding affinity to heme (unknown origin) by differential spectroscopy.
A short description of series [8]: Cytotoxicity against rat gastric mucosal cells assessed as cell viability at 10 to 100 uM after 16 hrs by MTT assay. The series is classed as cell-based, Gastric mucosa. (In general: Formazan colour is commonly taken as a measure of viable cells.)
Series [9] relates to Heme. Description: Binding affinity to heme (unknown origin).

The source of these data is ChEMBL document CHEMBL3217713, “Synthesis and biological evaluation of primaquinechloroquine twin drug: a novel heme-interacting molecule prevents free heme and hydroxyl radical-mediated protein degradation” (Medchemcomm, 2013).

Activity calls are given as the source filed them. No cut-off for these calls is given here.

`O=C(O)c1cc(O)c(O)c(O)c1`: the Activity in series [1] was 33.9 µM.
What is called Kd is the constant that tells how readily two partners part at equilibrium. Broadly, the IC50 is the concentration that gives 50% inhibition. As for `COc1cc(NC(C)CCCNc2ccnc3cc(Cl)ccc23)c2ncccc2c1` (stereo not drawn), the outcome (in series [2]; in [3]; in the series on Heme [5]) was Active. Also, the figures for the Activity in series [1], in series [6] and in series [8] were 30 µM, “Dose-dependent effect” and “Non-toxic”, respectively. Further, the dissociation constant Kd in [4] came out at 5.19 µM; at Heme [7] it was 4.34 µM. Besides, the IC50 in series [6] is 23 µM. This compound registered a Kapp in the series with Heme [7] of 2.3 ×10⁴ /M.
Take `CCN(CC)CCCC(C)Nc1ccnc2cc(Cl)ccc12` (stereo not drawn): the Ka in the series with Heme [9] is 5.5 ×10⁴ /M.
As for `COc1cc(NC(C)CCCN)c2ncccc2c1` (stereo not drawn) [PRIMAQUINE], in [8], the Activity entry was “Toxic”.
